Test results published in patent publication US20170226120A1, “INHIBITORS OF HIF PROLYL HYDROXYLASE” (MERCK SHARP & DOHME CORP., priority 2014, published 2017).
Read-outs that look alike come from different tables or passages of the source.

Assays:
human HIF-PHD2 = target: T1, human HIF-PHD2 (Homo sapiens, UniProt Q9GZT9); experiment: HIF-PHD2 inhibition, time resolved fluorescence assay of HIF-1α peptide hydroxylation; type: biochemical; details: FLAG-tagged full length PHD2; 0.2 μM 2-oxoglutarate, 0.5 μM HIF-1α peptide
T1 construct: FLAG-tagged full length PHD2 expressed in and purified from baculovirus-infected Sf9 cells; FLAG; made in house; host or cells: baculovirus-infected Sf9 cells
T1 sequence (Q9GZT9 whole entry): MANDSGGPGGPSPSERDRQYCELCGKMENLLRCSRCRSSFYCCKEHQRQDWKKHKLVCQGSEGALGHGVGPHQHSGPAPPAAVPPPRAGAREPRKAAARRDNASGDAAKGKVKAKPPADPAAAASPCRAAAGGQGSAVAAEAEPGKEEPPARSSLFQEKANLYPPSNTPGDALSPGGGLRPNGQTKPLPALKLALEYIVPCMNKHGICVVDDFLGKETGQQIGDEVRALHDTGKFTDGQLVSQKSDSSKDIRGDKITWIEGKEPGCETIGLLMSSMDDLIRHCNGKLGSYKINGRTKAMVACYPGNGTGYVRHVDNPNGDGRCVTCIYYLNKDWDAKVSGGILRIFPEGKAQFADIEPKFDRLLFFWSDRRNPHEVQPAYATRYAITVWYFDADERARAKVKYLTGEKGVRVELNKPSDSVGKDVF
Experimental: To each well of a 384-well plate, 1 μL of test compounds in DMSO (final concentration ranging from 0.3 nM to 10 uM) were added into 20 μl of assay buffer (50 mM Tris pH 7.4/0.01% Tween-20/0.1 mg/ml bovine serum albumin/10 μM ferrous sulfate/1 mM sodium ascorbate/20 μg/ml catalase) containing 0.15 μg/ml FLAG-tagged full length PHD2 expressed in and purified from baculovirus-infected Sf9 cells. After a 5 min preincubation at room temperature, the enzymatic reactions were initiated by the addition of 4 μL of substrates {final concentrations of 0.2 μM 2-oxoglutarate and 0.5 μM HIF-1α peptide biotinyl-[…] […] After incubation for 45 minutes at room temperature, the reactions were terminated by the addition of a 25 μL quench/detection mix to a final concentration of 1 mM ortho-phenanthroline, 0.1 mM EDTA, 0.5 nM anti-(His)6 LANCE reagent (Perkin-Elmer Life Sciences), 100 nM AF647-labeled streptavidin (Invitrogen), and 2 μg/ml (His)6-VHL complex {S. Tan Protein Expr. Purif.

[1] = Tissue PK profile in rat (liver and plasma drug level); type: in vivo; details: 10 mg/kg; for concentration at 4 h: po; for Kp at 4 h: liver/plasma, read-out: liver/plasma ratio
Experimental: The tissue PK profile of compounds described in this application were evaluated in rat. The tissue was harvested 4 hours after PO dosing at 10 mpk (vehicle: 0.5% MC; dose volume: 5 mL/Kg) and the drug level was determined. Shown in Table 1 are compound concentrations of selected examples in rat liver and plasma, as well as liver to plasma drug ratio.

[2] = liver, 4 hours after PO dosing at 10 mpk, vehicle 0.5% MC, read-out: liver concentration
[3] = 4 hours after PO dosing at 10 mpk, vehicle 0.5% MC
[4] = plasma, 4 hours after PO dosing at 10 mpk, vehicle 0.5% MC, read-out: plasma concentration

SMILES | IC50 (human HIF-PHD2) [nM] | concentration at 4 h [1, 2] [nM] | Kp at 4 h [1, 3] | concentration at 4 h [1, 4] [nM] | concentration at 4 h ([1]; in vivo, liver concentration) [nM] | concentration at 4 h ([1]; in vivo, plasma concentration) [nM]
N#Cc1ccc(Cn2c3c(c(O)c(C(=O)NCC(=O)O)c2=O)COC3)cc1 [Example 6, 2-(1-(4-Cyanobenzyl)-4-hydroxy-2-oxo-1,2,5,7-tetrahydrofuro[3,4-b]pyridine-3-carboxamido)acetic acid] | 3.1 | 1820 | 17.9 | 123 |  | 
NC(=O)c1ccc(-c2ccc(Cn3c4c(c(O)c(C(=O)NCC(=O)O)c3=O)COC4)cc2)cc1 [Example 61, 2-(1-((4′-carbamoyl-[1,1′-biphenyl]-4-yl)methyl)-4-hydroxy-2-oxo-1,2,5,7-tetrahydrofuro[3,4-b]pyridine-3-carboxamido)acetic acid] | 1.1 | 25.8 | 4.89 | 5.28 |  | 
N#Cc1ccc(-c2ccc(Cn3c4c(c(O)c(C(=O)NCC(=O)O)c3=O)COC4)cc2)cc1 [Example 24, 2-(1-((4′-cyano-[1,1′-biphenyl]-4-yl)methyl)-4-hydroxy-2-oxo-1,2,5,7-tetrahydrofuro[3,4-b]pyridine-3-carboxamido)acetic acid] | 1.5 | 642 | 30.4 | 13.7 |  | 
Cc1cc(Cl)ccc1Cn1c2c(c(O)c(C(=O)NCC(=O)O)c1=O)COC2 [Example 42, 2-(1-(4-chloro-2-methylbenzyl)-4-hydroxy-2-oxo-1,2,5,7-tetrahydrofuro[3,4-b]pyridine-3-carboxamido)acetic acid] | 4.1 | 54200 | 35.6 | 1520 |  | 
CC(C)(O)c1ccc(Cn2c3c(c(O)c(C(=O)NCC(=O)O)c2=O)COC3)cc1 [Example 5, 2-(4-Hydroxy-1-(4-(2-hydroxypropan-2-yl)benzyl)-2-oxo-1,2,5,7-tetrahydrofuro[3,4-b]pyridine-3-carboxamido)acetic acid] |  |  | 214 |  | 5600 | 26.7
O=C(O)CNC(=O)c1c(O)c2c(n(Cc3ccc(Cl)cc3)c1=O)COC2 [Example 27, 2-(1-(4-chlorobenzyl)-4-hydroxy-2-oxo-1,2,5,7-tetrahydrofuro[3,4-b]pyridine-3-carboxamido)acetic acid] |  |  | 39.6 |  | 21500 | 551
O=C(O)CNC(=O)c1c(O)c2c(n(Cc3cnc(C(F)(F)F)s3)c1=O)COC2 [Example 18, 2-(4-hydroxy-2-oxo-1-((2-(trifluoromethyl)thiazol-5-yl)methyl)-1,2,5,7-tetrahydrofuro[3,4-b]pyridine-3-carboxamido)acetic acid] |  |  | 258 |  | 11800 | 55.9
O=C(O)CNC(=O)c1c(O)c2c(n(Cc3cnc(C(F)(F)F)cn3)c1=O)COC2 [Example 11, 2-(4-hydroxy-2-oxo-1-((5-(trifluoromethyl)pyrazin-2-yl)methyl)-1,2,5,7-tetrahydrofuro[3,4-b]pyridine-3-carboxamido)acetic acid] |  |  | 359 |  | 7900 | 22
